Data from publication PMC11217349, “Development of Nurr1 agonists from amodiaquine by scaffold hopping and fragment growing” (Communications Chemistry, 2024).
Several values for one entry are separate records, joined by “and”; a condition that tells them apart may be missing. Identical values can stand only once. Entries after “also recorded” stand apart in the source; their conditions may differ.

Legend:
Type in all cases: cell-based
[1] = molecular target: T1, human Nurr1 (hinge region and ligand binding domain) (Homo sapiens, UniProt P43354); assay: Gal4-Nurr1 hybrid reporter gene assay
T1 construct: expressed in transfected cells; host or cells: HEK293T

Nur77 = molecular target: T2, Nur77 (Homo sapiens, UniProt P22736); assay: Gal4-Nur77 hybrid reporter gene assay; settings: HEK293T
T2 construct: chimeric receptors composed of the Gal4-DBD and the hinge region and LBD; expressed in transfected cells; host or cells: HEK293T
Experimental: Nurr1 modulation was determined in a Gal4 hybrid reporter gene assay in HEK293T cells (German Collection of Microorganisms and Cell Culture GmbH, DSMZ) using pFR-Luc (Stratagene, La Jolla, CA, USA; reporter), pRL-SV40 (Promega, Madison, WI, USA; internal control) and pFA-CMV-hNurr1-LBD[14], coding for the hinge region and ligand binding domain of the canonical isoform of human Nurr1. […] After 24 h, the medium was changed to Opti-MEM without supplements, and cells were transiently transfected using Lipofectamine LTX reagent (Invitrogen, Carlsbad, CA, USA) according to the manufacturer’s protocol. Five hours after transfection, cells were incubated with the test compounds in Opti-MEM supplemented with penicillin (100 U/mL), streptomycin (100 μg/mL), and 0.1% DMSO for 16 h before luciferase activity was measured using the Dual-Glo Luciferase Assay System (Promega) according to the manufacturer’s protocol on a Tecan Spark luminometer (Tecan Deutschland GmbH, Crailsheim, Germany). Firefly luminescence was divided by Renilla luminescence and multiplied by 1000 resulting in relative light units (RLU) to normalize for transfection efficiency and cell growth. Fold activation was obtained by dividing the mean RLU of the test compound by the mean RLU of the untreated control. All samples were tested in at least three biologically independent experiments in duplicates. For dose-response curve fitting and calculation of EC50 values, the equation “[Agonist] vs. response -- Variable slope (four parameters)” was used in GraphPad Prism (version 7.00, GraphPad Software, La Jolla, CA, USA). Selectivity profiling was performed with identical procedures using pFA-CMV-Nur77-LBD[14], pFA-CMV-NOR-1-LBD[14], pFA-CMV-THRα-LBD[51], pFA-CMV-RARα-LBD[52], pFA-CMV-PPARα-LBD[53], pFA-CMV-PPARγ-LBD[53], pFA-CMV-PPARδ-LBD[53], pFA-CMV-LXRα-LBD[54], pFA-CMV-FXR-LBD[55] and pFA-CMV-hRXRα-LBD[56].

[2] = molecular target: T3, human full-length Nurr1 monomer (NBRE) (Homo sapiens, UniProt P43354); assay: Full-length Nurr1 reporter gene assay (NBRE); settings: full-length human Nurr1 monomer, HEK293T
T3 construct: The full-length human nuclear receptor Nurr1 (pcDNA3.1-hNurr1-NE; Addgene plasmid #102363); host or cells: HEK293T
Description: (§1) Activation of full-length human Nurr1 was studied in transiently transfected HEK293T cells using the reporter plasmids pFR-Luc-NBRE[14], pFR-Luc-POMC[14] or pFR-Luc-DR5[14] each containing one copy of the respective human Nurr1 response element NBRE Nl3, NurRE, or DR5. The full-length human nuclear receptor Nurr1 (pcDNA3.1-hNurr1-NE; Addgene plasmid #102363) and, for DR5, RXRα (pSG5-hRXR)[57] were overexpressed. pRL-SV40 (Promega) was used for the normalization of transfection efficacy and to observe test compound toxicity. […] After 24 h, the medium was changed to Opti-MEM without supplements, and cells were transiently transfected using Lipofectamine LTX reagent (Invitrogen) according to the manufacturer’s protocol. Five hours after transfection, cells were incubated with the test compounds in Opti-MEM supplemented with penicillin (100 U/mL), streptomycin (100 μg/mL) and 0.1% DMSO for 16 h before luciferase activity was measured using the Dual-Glo Luciferase Assay System (Promega) according to the manufacturer’s protocol on a Tecan Spark luminometer (Tecan Deutschland GmbH). Firefly luminescence was divided by Renilla luminescence and multiplied by 1000 resulting in relative light units (RLU) to normalize for transfection efficiency and cell growth. Fold activation was obtained by dividing the mean RLU of the test compound by the mean RLU of the untreated control. All samples were tested in at least three biologically independent experiments in duplicates. For dose-response curve fitting and calculation of EC50 values, the equation “[Agonist] vs. response -- Variable slope (four parameters)” was used in GraphPad Prism (version 7.00, GraphPad Software).

[3] = molecular target: T4, human full-length Nurr1 homodimer (NurRE) (Homo sapiens, UniProt P43354); assay: Full-length Nurr1 reporter gene assay (NurRE); settings: full-length human Nurr1 homodimer, HEK293T
T4 construct: The full-length human nuclear receptor Nurr1 (pcDNA3.1-hNurr1-NE; Addgene plasmid #102363); host or cells: HEK293T
Description: as §1

[4] = tested on: human midbrain organoids from wildtype iPSC (isogenic control); assay: Midbrain organoid model, isogenic control; settings: immunostaining, fixed area
FXR = molecular target: T5, FXR (Homo sapiens, UniProt Q96RI1); assay: Gal4-hybrid selectivity assay FXR; settings: 3 µM; reference agonist = 100%
T5 construct: chimeric receptors composed of the Gal4-DBD and the hinge region and LBD; expressed in transfected cells; host or cells: HEK293T
Experimental: (§2) Nurr1 modulation was determined in a Gal4 hybrid reporter gene assay in HEK293T cells (German Collection of Microorganisms and Cell Culture GmbH, DSMZ) using pFR-Luc (Stratagene, La Jolla, CA, USA; reporter), pRL-SV40 (Promega, Madison, WI, USA; internal control) and pFA-CMV-hNurr1-LBD[14], coding for the hinge region and ligand binding domain of the canonical isoform of human Nurr1. […] After 24 h, the medium was changed to Opti-MEM without supplements, and cells were transiently transfected using Lipofectamine LTX reagent (Invitrogen, Carlsbad, CA, USA) according to the manufacturer’s protocol. Five hours after transfection, cells were incubated with the test compounds in Opti-MEM supplemented with penicillin (100 U/mL), streptomycin (100 μg/mL), and 0.1% DMSO for 16 h before luciferase activity was measured using the Dual-Glo Luciferase Assay System (Promega) according to the manufacturer’s protocol on a Tecan Spark luminometer (Tecan Deutschland GmbH, Crailsheim, Germany). Firefly luminescence was divided by Renilla luminescence and multiplied by 1000 resulting in relative light units (RLU) to normalize for transfection efficiency and cell growth. Fold activation was obtained by dividing the mean RLU of the test compound by the mean RLU of the untreated control. All samples were tested in at least three biologically independent experiments in duplicates. […]

LXRα = molecular target: T6, LXRα (Homo sapiens, UniProt Q13133); assay: Gal4-hybrid selectivity assay LXRα; settings: 3 µM; reference agonist = 100%
T6 construct: chimeric receptors composed of the Gal4-DBD and the hinge region and LBD; expressed in transfected cells; host or cells: HEK293T
Experimental: as §2

RXRα = molecular target: T7, RXRα (Homo sapiens, UniProt P19793); assay: Gal4-hybrid selectivity assay RXRα; settings: 3 µM; reference agonist = 100%
T7 construct: chimeric receptors composed of the Gal4-DBD and the hinge region and LBD; expressed in transfected cells; host or cells: HEK293T
Experimental: as §2

RARα = molecular target: T8, RARα (Homo sapiens, UniProt P10276); assay: Gal4-hybrid selectivity assay RARα; settings: 3 µM; reference agonist = 100%
T8 construct: chimeric receptors composed of the Gal4-DBD and the hinge region and LBD; expressed in transfected cells; host or cells: HEK293T
Experimental: as §2

PPARα = molecular target: T9, PPARα (Homo sapiens, UniProt Q07869); assay: Gal4-hybrid selectivity assay PPARα; settings: 3 µM; reference agonist = 100%
T9 construct: chimeric receptors composed of the Gal4-DBD and the hinge region and LBD; expressed in transfected cells; host or cells: HEK293T
Experimental: as §2

PPARδ = molecular target: T10, PPARδ (Homo sapiens, UniProt Q03181); assay: Gal4-hybrid selectivity assay PPARδ; settings: 3 µM; reference agonist = 100%
T10 construct: chimeric receptors composed of the Gal4-DBD and the hinge region and LBD; expressed in transfected cells; host or cells: HEK293T
Experimental: as §2

THRα = molecular target: T11, THRα (Homo sapiens, UniProt P10827); assay: Gal4-hybrid selectivity assay THRα; settings: 3 µM; reference agonist = 100%
T11 construct: chimeric receptors composed of the Gal4-DBD and the hinge region and LBD; expressed in transfected cells; host or cells: HEK293T
Experimental: as §2

N27 rat neurons = assay: WST-8 cytotoxicity assay, N27
Experimental: Each sample was prepared in four biologically independent repeats. After incubation for 24 h, the medium was refreshed and 10% water-soluble tetrazolinum salt (Cell Counting Kit-8, MedChemExpress) was added to assess metabolic activity. After 4 h, absorbance was measured at 450 nm using a Tecan Spark Cyto instrument (Tecan).

T1 sequence (P43354 360-595 limits assumed): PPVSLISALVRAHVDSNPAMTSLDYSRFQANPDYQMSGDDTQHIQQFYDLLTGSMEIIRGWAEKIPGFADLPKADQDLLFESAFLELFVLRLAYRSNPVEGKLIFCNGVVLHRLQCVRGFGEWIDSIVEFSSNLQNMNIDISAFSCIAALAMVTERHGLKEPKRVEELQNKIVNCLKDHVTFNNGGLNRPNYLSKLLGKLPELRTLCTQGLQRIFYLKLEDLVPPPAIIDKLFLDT
T6 sequence (Q13133 209-447 limits assumed): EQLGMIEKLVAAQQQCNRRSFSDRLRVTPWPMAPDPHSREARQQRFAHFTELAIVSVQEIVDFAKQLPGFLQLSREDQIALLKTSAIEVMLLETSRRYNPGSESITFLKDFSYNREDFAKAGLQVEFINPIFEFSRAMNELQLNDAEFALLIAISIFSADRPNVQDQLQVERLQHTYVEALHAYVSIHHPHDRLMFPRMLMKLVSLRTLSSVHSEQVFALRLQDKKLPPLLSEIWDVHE
T9 sequence (Q07869 239-466 limits assumed): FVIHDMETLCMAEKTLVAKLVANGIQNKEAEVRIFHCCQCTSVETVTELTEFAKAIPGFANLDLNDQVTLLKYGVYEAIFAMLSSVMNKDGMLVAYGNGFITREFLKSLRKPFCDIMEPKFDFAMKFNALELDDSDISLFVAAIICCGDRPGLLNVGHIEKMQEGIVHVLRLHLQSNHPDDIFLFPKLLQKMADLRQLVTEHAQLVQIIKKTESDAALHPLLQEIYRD
T11 sequence (P10827 128-410 isoform P10827-2 limits assumed): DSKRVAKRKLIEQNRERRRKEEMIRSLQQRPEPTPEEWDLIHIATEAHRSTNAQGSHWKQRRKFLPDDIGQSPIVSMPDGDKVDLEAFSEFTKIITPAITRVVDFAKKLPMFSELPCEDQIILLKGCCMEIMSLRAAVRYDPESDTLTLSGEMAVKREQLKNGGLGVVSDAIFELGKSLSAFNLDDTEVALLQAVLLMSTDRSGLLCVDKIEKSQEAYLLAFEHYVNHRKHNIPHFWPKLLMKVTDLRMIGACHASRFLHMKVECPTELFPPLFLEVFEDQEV
T7 sequence (P19793 227-458 limits assumed): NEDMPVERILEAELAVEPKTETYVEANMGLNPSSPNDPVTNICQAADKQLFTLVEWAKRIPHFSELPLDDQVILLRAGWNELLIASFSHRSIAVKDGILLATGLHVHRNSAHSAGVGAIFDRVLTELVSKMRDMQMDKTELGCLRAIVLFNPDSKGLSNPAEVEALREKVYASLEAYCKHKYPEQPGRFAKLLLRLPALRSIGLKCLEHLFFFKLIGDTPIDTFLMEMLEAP
T5 sequence (Q96RI1 262-486 limits assumed): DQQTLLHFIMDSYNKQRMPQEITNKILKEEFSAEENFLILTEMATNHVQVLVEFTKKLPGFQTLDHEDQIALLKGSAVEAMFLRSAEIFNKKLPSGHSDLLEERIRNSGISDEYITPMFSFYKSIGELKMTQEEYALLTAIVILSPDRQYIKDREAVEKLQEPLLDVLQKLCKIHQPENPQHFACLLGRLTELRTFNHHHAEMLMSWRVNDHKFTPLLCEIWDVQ
T10 sequence (Q03181 211-439 limits assumed): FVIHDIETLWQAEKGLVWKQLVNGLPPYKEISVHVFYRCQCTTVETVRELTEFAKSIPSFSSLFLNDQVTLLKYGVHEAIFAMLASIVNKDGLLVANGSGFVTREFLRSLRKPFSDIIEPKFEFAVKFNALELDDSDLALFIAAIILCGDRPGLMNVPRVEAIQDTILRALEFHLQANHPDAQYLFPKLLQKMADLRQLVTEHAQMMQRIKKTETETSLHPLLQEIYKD
T8 sequence (P10276 183-417 limits assumed): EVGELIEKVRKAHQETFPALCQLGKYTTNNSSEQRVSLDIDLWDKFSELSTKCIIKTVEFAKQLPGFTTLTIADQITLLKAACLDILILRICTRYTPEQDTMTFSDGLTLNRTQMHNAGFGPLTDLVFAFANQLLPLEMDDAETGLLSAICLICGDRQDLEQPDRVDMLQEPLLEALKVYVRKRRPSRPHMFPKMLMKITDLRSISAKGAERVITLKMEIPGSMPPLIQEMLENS
T4 sequence (P43354 whole entry): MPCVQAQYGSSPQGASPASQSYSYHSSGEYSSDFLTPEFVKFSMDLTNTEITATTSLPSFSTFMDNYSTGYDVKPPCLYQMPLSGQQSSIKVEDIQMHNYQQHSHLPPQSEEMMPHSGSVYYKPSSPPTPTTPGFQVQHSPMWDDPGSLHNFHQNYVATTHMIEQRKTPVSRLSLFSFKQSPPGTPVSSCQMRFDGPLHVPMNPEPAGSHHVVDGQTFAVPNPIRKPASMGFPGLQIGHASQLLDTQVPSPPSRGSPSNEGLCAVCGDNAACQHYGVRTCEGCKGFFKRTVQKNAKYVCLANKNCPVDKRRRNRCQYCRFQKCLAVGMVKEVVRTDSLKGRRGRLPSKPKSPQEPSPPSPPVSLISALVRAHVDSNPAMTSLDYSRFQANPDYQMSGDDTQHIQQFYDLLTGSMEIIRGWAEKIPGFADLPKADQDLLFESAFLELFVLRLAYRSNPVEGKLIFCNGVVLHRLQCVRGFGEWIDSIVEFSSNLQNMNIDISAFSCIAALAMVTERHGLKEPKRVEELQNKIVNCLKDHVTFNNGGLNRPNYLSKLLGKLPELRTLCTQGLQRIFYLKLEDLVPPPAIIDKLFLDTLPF
T3 sequence (P43354 whole entry): as above
T2 sequence (P22736 360-595 limits assumed): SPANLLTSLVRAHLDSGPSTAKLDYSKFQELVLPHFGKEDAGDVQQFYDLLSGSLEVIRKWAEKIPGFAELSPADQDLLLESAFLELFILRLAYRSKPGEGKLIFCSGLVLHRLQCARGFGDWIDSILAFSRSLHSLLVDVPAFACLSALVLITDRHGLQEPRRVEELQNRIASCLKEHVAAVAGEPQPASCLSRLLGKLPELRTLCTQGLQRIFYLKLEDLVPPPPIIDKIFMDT

| SMILES | highest non-toxic concentration ([1]; Gal4-Nurr1 hybrid reporter gene assay, HEK293T) | EC50(Nurr1) ([1]; Gal4-Nurr1 hybrid reporter, HEK293T, mean ± SD, n ≥ 3) | fold less active than 36 as Nurr1 modulator ([1]; no agonism at 10 µM vs EC50 of 36) | EC50(Nur77) (Nur77) | EC50(NBRE) [2] | EC50(NurRE) [3] | TH positive cells [4] | % rel. act. FXR (FXR) | % rel. act. LXRα (LXRα) | EC50 ([1]; Gal4-Nurr1 hybrid reporter, HEK293T, mean ± SD, n ≥ 3, read-out: EC50(Nurr1)) [nM] | % rel. act. RXRα (RXRα) | % rel. act. RARα (RARα) | EC50 (Nur77) [nM] | % rel. act. PPARα (PPARα) | % rel. act. PPARδ (PPARδ) | EC50 [3] [nM] | % rel. act. THRα (THRα) | rel. absorbance (450 nm) (N27 rat neurons; N27, 10 µM, WST-8, vs DMSO ctrl) | toxicity (WST-8) (N27 rat neurons; N27 rat neurons, 24 h) |
| --- | --- | --- | --- | --- | --- | --- | --- | --- | --- | --- | --- | --- | --- | --- | --- | --- | --- | --- | --- |
| Cc1nc2c(Cl)cccn2c1NC(=O)c1ccc(-c2ccccc2)[nH]1 [Compound 29, N-(8-Chloro-2-methylimidazo[1,2-a]pyridin-3-yl)-5-phenyl-1H-pyrrole-2-carboxamide] | inactive (10 µM^b) | inactive (10 µM^b); also recorded: no activation (10 µM) | at least 100 fold | no activation (10 µM) | no activation (10 µM) | no activation (10 µM) | 44 and 37 and 31 and 38 | – | – | – | – | – | – | – | – | – | – | – | – |
| Cc1nc2c(Cl)cccn2c1NC(=O)c1ccc(-c2ccc(N(C)C)cc2)o1 [Compound 36, N-(8-Chloro-2-methylimidazo[1,2-a]pyridin-3-yl)-5-(4-(dimethylamino)phenyl)furan-2-carboxamide] | – | – | – | – | no activation (1 µM) | – | 47 and 50 and 45 and 41 | 0.311% and 0.333% and 0.363% | 2.022% and 2.102% and 1.670% | 90 ± 5 | 0.348% and 0.360% and 0.470% | 0.175% and 0.388% and 0.324% | 330 ± 40 | 1.669% and 2.630% and 1.870% | 4.502% and 5.181% and 2.926% | 94 ± 3 | 0.070% and 0.082% and 0.063% | 94% and 99% and 90% and 91% | no toxic effect; also recorded: non-toxic; also recorded: inactive (10 µM) |
